“And” between values parts separate entries of the source, which are not always exact repeats. Equal values may be shown once.
Experiments:
K562 cells = assay: K562 cell survival after incubation with labelled iodoHoechst 33258; type: cell-based, human; conditions: 500 nM for 1 hour at 37° C., decays accumulated at 5° C. for 24 hours
Protocol: Cells (5×10^5/ml) in RPMI-1640 medium containing 10% FBS and gentamicin were incubated with varying specific activities of ^127I/^123I-iodoHoechst 33258 (500 nM) for 1 hour at 37° C. Following incubation the cells were separated from the supernatant by 3 centrifugation (400×g for 3 minutes)-wash cycles. The cell pellets were suspended in RPMI medium and ^123I-decays were accumulated at 5° C. for 24 hours. Following accumulation of decays, the cell-pellets were isolated by centrifugation at 400×g for 3 minutes, suspended in AMEM containing 20% FBS and an appropriate cell number from each of the samples was cloned in semi-solid (0.33% (w/v)) noble agar in 6-well microtiter plates, as discussed above.

plasmid DNA = assay: Plasmid DNA breakage, ^123I/^125I double isotope method; type: biochemical
Description: The experimental design exploits the plasmid DNA assay system, and agarose gel electrophoresis, as described previously to evaluate DNA breakage by the labelled minor groove binding DNA ligand, ^125I-iodoHoechst 33258 (Lobachevsky, Karagiannis and Martin 2004).
The accumulation of DNA single-stranded breaks and DNA double-stranded breaks is monitored by quantitation of the decline in the fraction of intact supercoiled plasmid (S), and the corresponding increase in the fractions of relaxed (R) and linear (L) species, with the progressive accumulation of decay events. Various assumptions enable the derivation of the relationship between the parameters S, R and L (or their normalised counterparts S′, R′ and L′), the number of decay events (n), and for example, the yield of double-stranded breaks per decay (d) of isotope in DNA-bound ligand. […] Accordingly, a double isotope strategy was developed, using a mixture of ^123I- and ^125I-iodoHoechst 33258. This approach yields a ratio d values, providing an estimate of the relative efficiency (^123I relative to ^125I) for double-strand breaks per decay, which is independent of f.
The basis of the double isotope method is apparent from the following relationship:
Where n1 is the number of ^123I decays, and n1m is the maximum (ie at time=infinity) number of ^123I decays.
A plot of the LHS term of the above equation versus n2 (the number of ^125I decay events in the incubation mixture) yields a two phase curve, the 2nd phase of which approaches a straight line (when n1=n1m). The values for the apparent breakage DNA dsb efficiency of ^123I and ^125I decays (da1 and da2, respectively) are obtained from the y intercept and from the gradient of the asymptote of the second phase of the curve, as shown in FIG. 14.
The apparent breakage efficiency is related to the actual efficiency of DNA-bound decay events, d, by the expression: da=df+δA
Where δA is the term for the “external” component of damage, arising from decay of non-DNA-bound isotope, which can be ignored because of the particular conditions of the
[formula] experiment, particularly, a low DNA concentration, A. Thus analysis of the data as exemplified in FIG. 14 provides the ratio of breakage efficiencies of ^123I versus ^125I decays.

CN1CCN(c2ccc3nc(-c4ccc5nc(-c6ccc(O)c(I)c6)[nH]c5c4)[nH]c3c2)CC1 [^123I-iodoHoechst 33258]
decays required for a lethal event (K562 cells): about 230 ^123I-decays per cell | da1(^123I), apparent DNA dsb breakage efficiency (plasmid DNA; DMSO added to 10% (D series)): 0.158 and 0.170 and 0.159 | da1(^123I)/da2(^125I) (plasmid DNA; DMSO added to 10% (D series)): 0.63 and 0.69 and 0.62 | Average da1(^123I)/da2(^125I) (plasmid DNA; DMSO added to 10% (D series), samples D1.2-D3.2): 0.65 ± 0.03 | da1(^123I), apparent DNA dsb breakage efficiency (plasmid DNA; aqueous buffer (N series)): 0.244 and 0.253 and 0.314 | da1(^123I)/da2(^125I) (plasmid DNA; aqueous buffer (N series)): 0.59 and 0.64 and 0.66 | Average da1(^123I)/da2(^125I) (plasmid DNA; aqueous buffer (N series), samples N1.2-N3.2): 0.63 ± 0.03
